Values of other authors, collected in patent publication US11612595B2, “Compositions and methods for treating rheumatoid arthritis” (Generos Biopharma Ltd., priority 2017, dated 2023).

Columns and labels:
SH2 domain of STAT1 = biological target: T1, SH2 domain of STAT1 (Homo sapiens, UniProt P42224); details: read-out: IC50 towards the SH2 domain of STAT1; cited from earlier work
T1 sequence (P42224 1-750): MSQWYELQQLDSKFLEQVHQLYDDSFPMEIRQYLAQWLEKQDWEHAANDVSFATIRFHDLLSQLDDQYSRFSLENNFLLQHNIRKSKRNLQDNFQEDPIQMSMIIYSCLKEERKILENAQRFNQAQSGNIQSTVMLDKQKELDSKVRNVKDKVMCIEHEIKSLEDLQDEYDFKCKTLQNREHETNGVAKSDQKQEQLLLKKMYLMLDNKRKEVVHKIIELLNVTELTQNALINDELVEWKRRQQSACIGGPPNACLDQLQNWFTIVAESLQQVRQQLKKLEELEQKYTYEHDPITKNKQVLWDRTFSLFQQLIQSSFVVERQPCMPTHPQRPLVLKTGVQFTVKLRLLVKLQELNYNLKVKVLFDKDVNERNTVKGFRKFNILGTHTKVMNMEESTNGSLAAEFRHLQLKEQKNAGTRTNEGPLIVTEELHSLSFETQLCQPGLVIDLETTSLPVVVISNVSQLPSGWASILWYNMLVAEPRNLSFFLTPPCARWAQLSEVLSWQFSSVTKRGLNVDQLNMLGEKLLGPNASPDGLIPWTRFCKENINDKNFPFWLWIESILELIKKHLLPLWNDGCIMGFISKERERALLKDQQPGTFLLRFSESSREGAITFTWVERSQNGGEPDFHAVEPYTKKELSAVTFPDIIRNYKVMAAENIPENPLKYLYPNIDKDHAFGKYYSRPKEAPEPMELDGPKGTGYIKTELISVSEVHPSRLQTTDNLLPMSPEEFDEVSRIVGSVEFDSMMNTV

STAT5b SH2 domain = biological target: T2, STAT5b SH2 domain (Homo sapiens, UniProt P51692); details: read-out: IC50 against STAT5b SH2 domain EPO peptide binding activity; cited from earlier work
T2 sequence (P51692 1-787): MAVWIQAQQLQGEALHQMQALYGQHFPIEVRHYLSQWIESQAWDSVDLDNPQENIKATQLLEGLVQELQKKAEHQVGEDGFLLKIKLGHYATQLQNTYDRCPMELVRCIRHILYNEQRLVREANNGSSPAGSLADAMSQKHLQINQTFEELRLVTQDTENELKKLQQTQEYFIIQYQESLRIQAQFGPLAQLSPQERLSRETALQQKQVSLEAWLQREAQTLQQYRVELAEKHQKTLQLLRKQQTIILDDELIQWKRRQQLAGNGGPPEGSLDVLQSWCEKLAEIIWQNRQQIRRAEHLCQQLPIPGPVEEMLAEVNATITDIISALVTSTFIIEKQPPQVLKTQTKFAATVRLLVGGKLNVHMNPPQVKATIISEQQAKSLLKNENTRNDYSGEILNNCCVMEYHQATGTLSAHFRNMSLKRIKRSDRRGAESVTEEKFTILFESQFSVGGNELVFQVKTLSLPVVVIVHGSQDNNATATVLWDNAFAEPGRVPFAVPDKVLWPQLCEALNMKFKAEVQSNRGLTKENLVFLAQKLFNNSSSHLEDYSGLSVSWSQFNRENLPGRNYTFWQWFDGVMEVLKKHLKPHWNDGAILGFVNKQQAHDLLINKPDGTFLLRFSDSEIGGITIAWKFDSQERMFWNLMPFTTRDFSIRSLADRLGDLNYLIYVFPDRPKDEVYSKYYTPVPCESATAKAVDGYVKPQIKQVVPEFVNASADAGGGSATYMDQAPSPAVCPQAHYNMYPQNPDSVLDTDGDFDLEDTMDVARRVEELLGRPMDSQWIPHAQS

STAT5 = biological target: T3, STAT5 (Homo sapiens, UniProt P42229+P51692); parameters: endogenous in cells; details: Daudi cells; cited from earlier work
T3 sequence (P42229 1-794): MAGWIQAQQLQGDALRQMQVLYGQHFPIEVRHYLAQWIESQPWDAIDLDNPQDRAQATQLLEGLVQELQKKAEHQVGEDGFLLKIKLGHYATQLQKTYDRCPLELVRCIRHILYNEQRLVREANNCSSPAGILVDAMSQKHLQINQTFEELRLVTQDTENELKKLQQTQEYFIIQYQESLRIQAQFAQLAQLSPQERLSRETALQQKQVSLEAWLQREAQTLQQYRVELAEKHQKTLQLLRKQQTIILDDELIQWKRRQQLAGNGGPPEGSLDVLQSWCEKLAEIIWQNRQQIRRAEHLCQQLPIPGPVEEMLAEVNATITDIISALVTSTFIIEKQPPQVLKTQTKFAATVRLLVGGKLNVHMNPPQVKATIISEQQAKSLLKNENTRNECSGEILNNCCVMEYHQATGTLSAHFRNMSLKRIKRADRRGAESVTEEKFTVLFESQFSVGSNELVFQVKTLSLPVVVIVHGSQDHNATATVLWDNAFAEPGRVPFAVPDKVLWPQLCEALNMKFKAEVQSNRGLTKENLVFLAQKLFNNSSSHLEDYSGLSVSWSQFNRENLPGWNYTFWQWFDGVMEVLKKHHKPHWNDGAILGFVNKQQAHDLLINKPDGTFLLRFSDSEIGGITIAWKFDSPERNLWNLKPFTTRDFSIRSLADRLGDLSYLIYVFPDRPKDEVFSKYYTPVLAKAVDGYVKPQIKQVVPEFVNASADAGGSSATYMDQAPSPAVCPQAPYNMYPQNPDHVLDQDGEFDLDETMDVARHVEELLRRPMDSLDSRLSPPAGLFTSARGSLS
T3 sequence (P51692 1-787): T2 sequence (P51692 1-787)

SH2 domain of STAT3 = SH2 domain of STAT3 (Homo sapiens, UniProt P40763); details: read-out: IC50 towards the SH2 domain of STAT3; cited from earlier work
STAT3 = STAT3 (Homo sapiens, UniProt P40763); parameters: IFNα-stimulated STAT1 phosphorylation or LIF-stimulated STAT3 phosphorylation in K562 cells; endogenous in cells; host or cells: K562 cells; details: K562 cells, 10 μM 1 h pretreatment; cited from earlier work
STAT1 = biological target: T4, STAT1 (Homo sapiens, UniProt P42224); details: K562 cells, 10 μM 1 h pretreatment; cited from earlier work
T4 sequence (P42224 1-750): T1 sequence (P42224 1-750)

[1] = system: Chronic Myeloid Leukemia (CML) cell lines; details: cited from earlier work

Sequence of SH2 domain of STAT3 (P40763 whole entry, the tested form may be a part): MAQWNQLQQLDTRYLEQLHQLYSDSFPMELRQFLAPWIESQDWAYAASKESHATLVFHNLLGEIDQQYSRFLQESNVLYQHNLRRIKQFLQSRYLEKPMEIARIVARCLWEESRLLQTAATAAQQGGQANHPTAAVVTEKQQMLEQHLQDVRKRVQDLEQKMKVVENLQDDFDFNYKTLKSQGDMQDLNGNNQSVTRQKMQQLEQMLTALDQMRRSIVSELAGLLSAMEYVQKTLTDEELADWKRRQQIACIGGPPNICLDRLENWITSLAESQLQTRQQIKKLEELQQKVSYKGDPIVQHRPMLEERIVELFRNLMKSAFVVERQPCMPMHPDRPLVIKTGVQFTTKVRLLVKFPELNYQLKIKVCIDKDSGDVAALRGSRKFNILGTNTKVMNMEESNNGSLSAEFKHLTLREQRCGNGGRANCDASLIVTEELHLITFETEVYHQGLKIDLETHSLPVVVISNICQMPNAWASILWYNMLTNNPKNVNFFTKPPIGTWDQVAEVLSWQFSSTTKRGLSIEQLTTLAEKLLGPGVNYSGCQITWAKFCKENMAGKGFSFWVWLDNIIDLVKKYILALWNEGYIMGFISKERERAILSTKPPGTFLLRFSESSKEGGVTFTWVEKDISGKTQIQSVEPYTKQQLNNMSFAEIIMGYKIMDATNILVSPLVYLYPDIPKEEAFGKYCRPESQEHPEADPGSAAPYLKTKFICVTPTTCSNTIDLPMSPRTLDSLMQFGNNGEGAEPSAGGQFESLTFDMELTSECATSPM
Sequence of STAT3 (P40763 whole entry): as the sequence (P40763 whole entry, the tested form may be a part) above

O=C(N/N=C/c1coc2ccccc2c1=O)c1cccnc1 [nicotinohydrazide, N′-((4-Oxo-4H-chromen-3-yl)methylene)nicotinohydrazide]
IC50 (SH2 domain of STAT1): > 500 µM | IC50 (STAT5b SH2 domain): 47 µM | IFN-α-stimulated STAT5 tyrosine phosphorylation (STAT5): inhibit | IC50 (SH2 domain of STAT3): > 500 µM

O=c1[nH]c2ccccc2n1C1CCN(CCCC(c2ccc(F)cc2)c2ccc(F)cc2)CC1 [pimozide, 1-[1-[4,4-bis(4-fluorophenyl)butyl]-4-piperidinyl]-1,3-dihydro-2H-benzimidazole-2-one]
LIF-stimulated STAT3 phosphorylation (STAT3): little activity | IFNα-stimulated STAT1 phosphorylation (STAT1): little activity | cell cycle arrest and apoptosis [1]: induces
